Reference: patent EP2077092A2, “System and Methods for Screening or Analyzing Targets” (Taipei Veterans General Hospital, priority 2007, dated 2009)

How the values were obtained:
Type in all cases: cell-based, Sprague-Dawley (SD) rats
[1] = system: IL-6; experiment: IL-6 ELISA in LPS-treated NSCs; settings: vs only LPS-treated NSCs, IM 3 µM, p<0.05
[2] = system: IL-1β; experiment: IL-1β ELISA in LPS-treated NSCs; settings: vs only LPS-treated NSCs, IM 3 µM, p<0.05
[3] = system: TNF-α; experiment: TNF-α ELISA in LPS-treated NSCs; settings: vs only LPS-treated NSCs, IM 3 µM, p<0.05
[4] = system: NSCs; experiment: MTT cell viability assay of IM-treated NSCs; settings: 3 µM IM, Day 3, Day 5 and Day 7 cultures, p<0.05
Method: (§1) All animals used were treated in accordance with the Animal Care and Use Committee guideline at Taipei Veterans General Hospital. The protocol of the present study was also approved by the committee. Adult Sprague-Dawley (SD) rats (8 weeks old, 250 g) were anesthetized with intraperitoneal phenobarbital (Sigma, USA), and the location of their brains was mapped. Then, the brain was surgically separated from the hippocampus region. In brief, tissues from the hippocampus of adult rats were dissociated and incubated in Hank's balanced salt solution (HBSS) containing collagenase (78 units/ml) and hyaluronidase (38 units/ml) for 10 minutes at 37°C. […] Viable cells were counted by trypan blue exclusion and plated as 5000 cells/200 µL per well in 96-well plates (Coming Inc, Acton, MA, USA) with no substrate pretreatment. […]
IM was purchased from Sigma Chem. Co., St Louis, MO, USA. […] The amount of MTT fromazon product was determined using a microplate reader and the absorbance was measured at 560 nm (SpectraMax 250, Molecular Devices, Sunnyvale, CA, USA). […] The activities of caspases 8 and 3 (Medical and Biological Laboratories Co., Ltd., Nagoya, Japan), and the concentration of IL-6, IL-1 and TNF-α (Pharmingen, San Diego, CA, USA) were determined by ELISA kits and quantified by reading at 490 nm (MRX; Dynatech Laboratories, Chantilly, VA, USA). Each individual sample was analyzed in triplicate.

[5] = system: caspase 8; experiment: Caspase 8 activity ELISA in LPS-treated NSCs; settings: LPS (100 ng/ml) exposure, Day 7, vs LPS-treated NSCs without treatment, p<0.05
[6] = system: NSCs; experiment: Microdialysis with HPLC-ECD of 5-HT in the culture medium of IM-treated NSCs; settings: Day 7 and Day 14, IM-treated NSCs vs NSCs without IM treatment, p<0.05
[7] = system: MAP2; experiment: Real-time RT-PCR of MAP2 mRNA in IM-treated NSCs; settings: Days 5 and Day 7 IM-treated NSCs vs non IM-treated NSCs, p<0.05
Method: as §1, with “37°C. The tissues were then mechanically dissected and placed in a trypsin solution (1.33 mg/ml) at 37°C for another 10 minutes. Dissociated cells were then centrifuged at 150 GG for 5 minutes.” for “37°C.”
For real-time RT-PCR, the total RNA was extracted using the RNAeasy kit (Qiagen, Valencia, CA, USA). […] The quantification in the unknown samples was performed with LightCycler Relative Quantification Software version 3.3 (Roche Molecular Systems, Alameda, CA, USA). […]

CN(C)CCCN1c2ccccc2CCc2ccccc21 [IM, imipramine]
IL-6 production in the LPS-treated NSCs [1]: effectively reduces | IL-1β production in the LPS-treated NSCs [2]: effectively reduces | TNF-α production in the LPS-treated NSCs [3]: effectively reduces | cell survival (MTT assay) [4]: significantly increased | apoptotic activities of caspase 8 [5]: significantly decreased | 5-HT levels of the culture mediums [6]: significantly higher | mRNA levels of MAP2 [7]: significantly increased
